According to PubChem BioAssay AID179 (DTP/NCI, 2004):
Active and inactive are the calls of the source.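 The calls were made as follows: active = compounds giving half or more protection of infected cells from virus-caused growth loss, again on retest; inactive = the rest.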 Where a SMILES comes first, the peptide text is derived from it.

System: CEM cells HIV-1 protection, formazan growth assay
Experiment: NCI AIDS Antiviral Assay
Conditions: for IC50: measured here: growth of uninfected CEM cells
In short: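 Human CEM cells, uninfected and HIV-1-infected, exposed to five drug concentrations; growth measured by soluble formazan assay and scored as percent protection from infection, with protecting compounds retested.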

CC(=O)OCC1OC(n2c(-c3cccs3)c3c(c(C#N)c2=S)-c2ccccc2CC3)C(OC(C)=O)C(OC(C)=O)C1OC(C)=O (stereo not given)
outcome: inactive

COc1cccc(-c2nccc3c(OCc4ccccc4)c(OC)c(OC)cc23)c1
outcome: inactive

CC(=O)CSc1c(-c2ccccc2)c(=O)n(-c2ccccc2)c(=S)n1-c1ccccc1
EC50: > 200 µM | IC50: 79.4 µM

Nc1nnc(CCC(=O)Nc2cc(Cl)ccc2Cl)n1N
EC50: > 8.71 µM | IC50: > 8.71 µM

CCCCCCCCCCCCCCCCNc1ccn(C2CC(OP(=O)(O)OCC3OC(n4cc(C)c(=O)[nH]c4=O)CC3N=[N+]=[N-])C(CO)O2)c(=O)n1 (stereo not given)
EC50: 0.182 µM | IC50: 77.6 µM

O=C1c2ccccc2C(=O)c2c1ccc1c2N=C(c2ccc(F)cc2)CC(c2ccc(Cl)c(Cl)c2)N1 (stereo not given)
EC50: > 14.1 µM | IC50: > 14.1 µM

Clc1ccc(CCn2cncn2)c(Cl)c1
EC50: > 891 µM | IC50: 437 µM

CCN(CC)C(=O)CCn1cc(F)c(=O)[nH]c1=O
EC50: > 977 µM | IC50: > 977 µM

C#CCNC(Cc1cnc[nH]1)C(=O)O (stereo not given)
EC50: > 200 µM | IC50: > 200 µM

CC1OC(OC2C(OC(=O)[C@]34CCC(C)(C)CC3C3=CCC5[C@@]6(C)C[C@H](O)[C@H](OC7OC(COC8OC(CO)C(O)C(O)C8O)C(O)C(O)C7O)[C@@](C)(C(=O)O)C6CC[C@@]5(C)C3(C)CC4)OCC(O)C2O)C(O)C(O)C1OC1OCC(O)C(O)C1O (stereo not given in full)
EC50: > 110 µM | IC50: > 110 µM

COc1cnn(-c2ccccc2)c(=O)c1SCc1ccc(Cl)cc1
EC50: > 52.5 µM | IC50: 30.9 µM

CC(C)CC(NC(=O)C(Cc1cnc[nH]1)NC(=O)C(CC(N)=O)NC(=O)C(NC(=O)C(CO)NC(=O)C(Cc1ccc(O)cc1)NC(=O)C(CO)NC(=O)C(C)NC(=O)C(CCCCN)NC(=O)C(N)CC(=O)O)C(C)O)C(=O)O (stereo not given) (H-DKASYSTNHL-OH; configuration not given here)
EC50: > 55 µM | IC50: > 55 µM

Cc1ccccc1-n1c(=O)nc2n(-c3ccc(C(C)(C)C)cc3)c3ccccc3cc-2c1=O
EC50: > 200 µM | IC50: 14.1 µM

CC1(C)N=C(N)N=C(N)N1c1ccc(CCCCc2ccc(S(=O)(=O)F)cc2Cl)c(Cl)c1
EC50: > 107 µM | IC50: 1.41 µM

Clc1ccc(-c2cn3c(nc4ccccc43)c(-c3ccccc3)n2)cc1
EC50: > 200 µM | IC50: 72.4 µM

Oc1cccc2nc3cc(CN4CCOCC4)c(CN4CCOCC4)cc3nc12
EC50: > 18.2 µM | IC50: > 18.2 µM

CC(CC/C=C/CO)C1CC(OS(=O)(=O)O)C2(O)C1(C)CCC1C3CCC(O)C(O)C3C(O)CC12O (stereo not given)
outcome: inactive

Cc1nc(C(N)=S)sc1C(=O)C/C(=N/N)C(=O)Nc1ccc(Cl)cc1
EC50: > 240 µM | IC50: > 240 µM

COc1nc2c(c(O)c(C)c(=O)n2OC2OCC(OC(C)=O)C(OC(C)=O)C2OC(C)=O)c(=O)n1C (stereo not given)
EC50: > 132 µM | IC50: > 132 µM

Cc1ccc2c(c1)C1(C)c3cc(C)ccc3SP1S2 (stereo not given)
EC50: > 12.6 µM | IC50: > 12.6 µM

Cn1c2ccccc2c2nnc(-n3nc(-c4ccc(Br)cc4)cc3N)nc21
EC50: > 200 µM | IC50: > 200 µM

CCOC(=O)C(NC(=O)c1ccccc1)[CH](c1ccccc1)[Sn]([c]1ccccc1)([c]1ccccc1)[c]1ccccc1 (stereo not given)
EC50: > 200 µM | IC50: 20.4 µM

N#CSc1nc[nH]c1C(N)=O
EC50: > 200 µM | IC50: 10 µM

O=C1OC(c2ccccc2)=N/C1=C\c1cc(Cl)ccc1Cl
EC50: > 6.31 µM | IC50: > 6.31 µM

O=c1c2[nH]cnc2n(-c2ccccc2)c(=S)n1-c1ccccc1
EC50: > 200 µM | IC50: > 200 µM

CC(=O)NNC(=S)N/C=C(\C#N)S(=O)(=O)c1ccc(C)cc1
outcome: inactive

CC(C)OC(=S)Nc1ccc(Cl)c(COC(C)(C)C)c1
EC50: 5.37 µM | IC50: 31.6 µM

CN(C)c1ccc2c3c(c(=O)oc2c1)CCC3
EC50: > 79.4 µM | IC50: > 79.4 µM

O=C(CC(=O)Nc1ccccc1)NNC(Sc1ccccc1)c1cc(N=Nc2ccc(Br)cc2)ccc1O (stereo not given)
outcome: inactive

COc1c(C)c(C/C=C(\C)CC/C=C(\C)CC/C=C(\C)CCC=C(C)C)c(OC)c2ccccc12
EC50: > 200 µM | IC50: 107 µM

c1ccc2sc(-c3c4ccccc4cc4c3ccc3ccccc34)cc2c1
EC50: > 200 µM | IC50: > 200 µM

O=C(O)c1ccccc1-n1nc(C(=O)O)c(N=Nc2ccc(/C=C/c3ccc(N=Nc4c(C(=O)O)nn(-c5ccccc5C(=O)O)c4O)cc3S(=O)(=O)O)c(S(=O)(=O)O)c2)c1O.[Cu+2].[Na+]
EC50: > 0.479 µM | IC50: > 0.479 µM

COC1=C(Br)C(=O)c2nc(C)ccc2C1=O
outcome: inactive

CCOc1ccc(N=NC2C(=O)N(C(=O)CC(=O)Nc3ccccc3OC)N=C2C)cc1 (stereo not given)
EC50: > 200 µM | IC50: 7.24 µM

COC12C(COC(N)=O)C3=C(C(=O)C(C)=C(N)C3=O)N1CC1C2N1C (stereo not given)
EC50: > 724 µM | IC50: 0.417 µM

CSc1ccc(/C=C2/C[N+](C)(C)C/C(=C/c3ccc(SC)cc3)C2=O)cc1
EC50: > 129 µM | IC50: 12.3 µM

O=C(Nc1ccc(/C=C\c2ccc(NC(=O)c3cc(S(=O)(=O)O)ccc3O)cc2S(=O)(=O)O)c(S(=O)(=O)O)c1)c1cc(S(=O)(=O)O)ccc1O
EC50: 70.8 µM | IC50: > 100 µM

Cc1ccnc(NC(=S)Nc2cc(C)ccn2)c1
EC50: > 200 µM | IC50: 135 µM

Clc1ccc(C2ON2C2CCCCC2)cc1 (stereo not given)
outcome: inactive

CN(C)c1ccc(/C=C(\C#N)c2nc(-c3cc4ccccc4oc3=O)cs2)cc1
EC50: 9.77 µM | IC50: > 100 µM

CC[N+](C)(CC)CCCC(C)N1C(=O)C2CCCCC2C1=O (stereo not given)
EC50: > 200 µM | IC50: > 200 µM

COC(=O)Nc1cn2ccc(Sc3ccccc3)cc2n1
EC50: > 45.7 µM | IC50: 0.776 µM

Nc1nnc[se]1
EC50: > 200 µM | IC50: 3.63 µM

COC(=O)/C=C1\C(CO[Si](C)(C)C(C)(C)C)OC(n2ccc(=O)[nH]c2=O)C1O (stereo not given)
EC50: > 200 µM | IC50: 6.17 µM

O=c1oc2cc(O)ccc2c(O)c1C(c1ccc2ccccc2c1)c1c(O)c2ccc(O)cc2oc1=O
outcome: inactive

CCOC(=O)Nc1cc(Nc2ccc(Cl)cc2)c2nc(-c3ccc(Cl)cc3)c(-c3ccc(Cl)cc3)nc2n1
EC50: > 37.2 µM | IC50: > 37.2 µM

CCN(CC)CC(=O)Nc1ccccc1C
EC50: > 100 µM | IC50: > 100 µM

O=C(c1ccccc1)c1cc2c([nH]c1=O)CCCCC2
EC50: > 200 µM | IC50: 135 µM

COC1CCC(OS(C)(=O)=O)CO1 (stereo not given)
EC50: > 200 µM | IC50: 33.9 µM

COc1ccc2nc3cc([N+](=O)[O-])ccc3c(NCCCN(CCO)CCO)c2c1
EC50: > 200 µM | IC50: 2.51 µM

Nc1cn2ncnc2c(=O)[nH]1
EC50: > 174 µM | IC50: > 174 µM

CC(=O)OC[C@]1(C)C2C=C[C@@H]3C4(CC[C@]5(C)C(C(C)N(C)C)[C@H](O)CC35C)CC24CC[C@@H]1N(C)C (stereo not given in full)
outcome: inactive

CC(C)C1N2CCCCC2[C@@H]2c3[nH]c4ccccc4c3CCN12 (stereo not given in full)
EC50: > 81.3 µM | IC50: > 81.3 µM

O=C(O)c1ccccc1/C=N/NC1=NCCN1
EC50: > 200 µM | IC50: 85.1 µM

O=Nc1ccc(O)c2ncccc12
outcome: inactive

CN(c1c(Cl)cccc1Cl)S(=O)(=O)c1ccccc1[N+](=O)[O-]
EC50: > 200 µM | IC50: 66.1 µM

CC(=O)OC1O[C@@H](C(C)(C)O)CC[C@@H]1[C@H]1CC[C@@]2(C)C3=C(CC[C@]12C)[C@@]1(C)C[C@@H](OC(=O)CC(C)(O)CC(=O)O)[C@H](OC(C)=O)C(C)(C)C1CC3 (stereo not given in full)
EC50: > 200 µM | IC50: 105 µM

C1CCC(OCc2nnn3c2CCC3)OC1 (stereo not given)
outcome: inactive
